Patent publication US20120100189A1 (Teva Pharmaceutical Industries Ltd., priority 2009, published 2012)

Conditions: non-polar organic solvents such as hexane toluene and ethylacetate

Compound: C#CCN[C@@H]1CCc2ccccc21 [Rasagiline base]
- solubility in non-polar organic solvents: very soluble
